{
  "source": "paper PMC4658304",
  "about": "(Nuclear medicine and biology, 2015)",
  "key": {"mGluR1 [1]": {"test_system": "mGluR1", "details": "read-out: IC50 (mGluR1 affinity); mGluR1 radioligand affinity; cited from earlier work"}, "mGluR1 [2]": {"target": "T1, mGluR1 (Macaca mulatta, UniProt I2CU04)", "T1 sequence (I2CU04 19-1195)": "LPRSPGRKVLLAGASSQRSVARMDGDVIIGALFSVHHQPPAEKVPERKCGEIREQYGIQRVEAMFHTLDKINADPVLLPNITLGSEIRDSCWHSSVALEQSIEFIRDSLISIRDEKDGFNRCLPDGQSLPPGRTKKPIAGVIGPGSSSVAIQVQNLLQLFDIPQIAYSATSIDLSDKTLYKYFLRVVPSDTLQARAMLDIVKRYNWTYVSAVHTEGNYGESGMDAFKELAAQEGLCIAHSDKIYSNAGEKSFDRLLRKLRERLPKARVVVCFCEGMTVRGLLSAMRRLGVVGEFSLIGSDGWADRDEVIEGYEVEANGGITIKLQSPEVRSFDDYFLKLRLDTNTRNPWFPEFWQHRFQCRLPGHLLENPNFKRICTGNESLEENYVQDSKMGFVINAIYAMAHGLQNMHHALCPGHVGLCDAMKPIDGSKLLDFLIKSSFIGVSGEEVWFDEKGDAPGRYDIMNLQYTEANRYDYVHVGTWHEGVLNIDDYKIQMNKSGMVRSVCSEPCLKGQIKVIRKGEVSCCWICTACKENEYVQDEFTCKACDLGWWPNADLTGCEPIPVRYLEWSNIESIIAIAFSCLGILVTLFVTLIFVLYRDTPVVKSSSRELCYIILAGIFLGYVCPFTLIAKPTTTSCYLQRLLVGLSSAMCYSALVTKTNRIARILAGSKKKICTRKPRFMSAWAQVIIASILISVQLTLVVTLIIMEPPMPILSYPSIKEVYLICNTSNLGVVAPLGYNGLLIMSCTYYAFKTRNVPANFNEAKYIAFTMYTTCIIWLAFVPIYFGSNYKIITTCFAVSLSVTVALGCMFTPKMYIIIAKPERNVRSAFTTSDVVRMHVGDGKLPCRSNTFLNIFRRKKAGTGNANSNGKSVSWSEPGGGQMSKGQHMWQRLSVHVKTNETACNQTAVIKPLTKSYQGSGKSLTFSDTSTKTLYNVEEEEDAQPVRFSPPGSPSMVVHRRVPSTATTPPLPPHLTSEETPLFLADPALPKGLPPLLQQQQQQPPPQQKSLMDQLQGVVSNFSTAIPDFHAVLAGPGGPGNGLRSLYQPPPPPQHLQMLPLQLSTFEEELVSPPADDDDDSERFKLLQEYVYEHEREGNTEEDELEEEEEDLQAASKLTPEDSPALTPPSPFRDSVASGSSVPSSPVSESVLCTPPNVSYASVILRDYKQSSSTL", "details": "cited from earlier work; for peak uptake in mGluR1-rich cerebellum: rhesus monkey"}, "mGluR1 [3]": {"target": "T1, mGluR1", "details": "baseline"}, "[4]": {"details": "cited from earlier work"}, "[5]": {"experiment": "Emergence of radiometabolites in monkey plasma", "format": "in vivo, rhesus monkey"}, "[6]": {"experiment": "Stability in monkey whole blood and plasma", "format": "in vitro ADME", "details": "30 min, room temperature"}, "mGluR1 [7]": {"target": "T1, mGluR1", "experiment": "Two-tissue compartmental modeling of PET data"}, "[8]": {"experiment": "Stability in sodium phosphate buffer", "format": "physicochemical", "details": "sodium phosphate buffer 0.15 M pH 7.4, 57 min, room temperature, n = 4"}, "[9]": {"details": "monkey brain homogenates, 30 min, room temperature"}, "[10]": {"experiment": "Stability of formulated radioligand in saline containing ethanol", "format": "physicochemical", "details": "saline containing ethanol (10% v/v), 1 h, room temperature, HPLC"}, "Plasma free fraction": {"experiment": "Plasma free fraction", "format": "in vitro ADME", "details": "rhesus monkey plasma, pre-blocked condition (JNJ16259685 3 mg/kg i.v.), n = 3"}},
  "note": "Where “and” joins values, the source holds several entries; their conditions need not be identical. Identical values can stand only once. Like-named read-outs stand apart in the source and are kept apart here.",
  "data": [
    {"compound": "CNc1cc(-c2csc(N(C)C(=O)c3ccc([18F])cc3)n2)ncn1", "note": "[[^18F]FIMX, [^18F]4-fluoro-N-methyl-N-(4-(6-(methylamino)pyrimidin-4-yl)thiazol-2-yl)benzamide]", "values": [
      {"measurement": "IC50", "setting": "mGluR1 [1]", "value": 1.8, "unit": "nM"},
      {"measurement": "decrease of cerebellum radioactivity from peak", "setting": "mGluR1 [2]; at 90 min after injection", "value": 37, "unit": "%"}
    ]},
    {"compound": "CNc1cc(-c2csc(N(C)C(=O)c3ccc(F)cc3)n2)ncn1", "note": "[[^11C]FIMX, [carbonyl-^11C]4-Fluoro-N-methyl-N-(4-(6-(methylamino)pyrimidin-4-yl)thiazol-2-yl)benzamide]", "values": [
      {"measurement": "peak radioactivity uptake in frontal cortex", "setting": "mGluR1 [3]", "value": 4.23, "unit": "SUV"},
      {"measurement": "peak radioactivity uptake in hippocampus", "setting": "mGluR1 [3]", "value": 4.47, "unit": "SUV"},
      {"measurement": "peak radioactivity uptake in occipital cortex", "setting": "mGluR1 [3]", "value": 3.67, "unit": "SUV"},
      {"measurement": "peak radioactivity uptake in thalamus", "setting": "mGluR1 [3]", "value": 6.00, "unit": "SUV"},
      {"measurement": "cerebellum radioactivity level at 85 min", "setting": "mGluR1 [3]; 85 min after injection", "value": 5.74, "unit": "SUV"},
      {"measurement": "decrease of cerebellum radioactivity from peak", "setting": "mGluR1 [3]; at 85 min after injection", "value": 32, "unit": "%"},
      {"measurement": "time of peak regional brain radioactivity uptake", "setting": "mGluR1 [3]; i.v.", "value": "around 12.5 min"},
      {"measurement": "peak radioactivity uptake in cerebellum", "setting": "mGluR1 [3]; receptor-rich cerebellum", "value": "8.50 SUV and 8.5 SUV"},
      {"measurement": "logD obtained without correction for instability", "setting": "[4]", "value": 2.52},
      {"measurement": "percentage of total plasma radioactivity represented by parent", "setting": "[5]; baseline, 10 min after i.v. injection", "value": 31, "unit": "%"},
      {"measurement": "percentage of total plasma radioactivity represented by parent", "setting": "[5]; baseline, 30 min after i.v. injection", "value": 21, "unit": "%"},
      {"measurement": "percentage of total plasma radioactivity represented by parent", "setting": "[5]; preblocked condition, 10 min after i.v. injection", "value": 43, "unit": "%"},
      {"measurement": "percentage of total plasma radioactivity represented by parent", "setting": "[5]; preblocked condition, 30 min after i.v. injection", "value": 31, "unit": "%"},
      {"measurement": "unchanged radioligand in plasma", "setting": "[6]; monkey plasma", "value": 91, "unit": "%"},
      {"measurement": "unchanged radioligand in whole blood", "setting": "[6]; monkey whole blood", "value": 92, "unit": "%"},
      {"measurement": "imaging time after which VT appeared stable in all brain regions", "setting": "mGluR1 [7]; baseline", "value": 60, "unit": "min"},
      {"measurement": "imaging time by which VT is within 10% of terminal value", "setting": "mGluR1 [7]; baseline scans, two-tissue compartment model", "value": "≤ 40", "unit": "min"},
      {"measurement": "reduction of VT in cerebellum by preblock", "setting": "mGluR1 [7]; baseline vs preblock with JNJ16259685", "value": "~90", "unit": "%"},
      {"measurement": "VT in cerebellum", "setting": "mGluR1 [7]; rhesus monkey cerebellum, baseline", "value": 13, "unit": "mL/cm^3"},
      {"measurement": "remaining fraction of original radiochemical purity in buffer", "setting": "[8]", "value": "79.1 ± 3.3", "unit": "%"},
      {"measurement": "unchanged radioligand in brain homogenates", "setting": "[9]", "value": 99.4, "unit": "%"},
      {"measurement": "unchanged radioligand in formulation", "setting": "[10]", "value": "> 97", "unit": "%"},
      {"measurement": "plasma free fraction (fP)", "setting": "Plasma free fraction", "value": "0.042 ± 0.003"}
    ]},
    {"compound": "Cc1ccc(C(=O)N(C)c2nc(-c3cc(NC(C)C)ncn3)cs2)cc1", "note": "[[^11C]ITDM, [^11C]N-[4-[6-(isopropylamino)pyrimidin-4-yl]-1,3-thiazol-2-yl]-4-methyl-N-methylbenzamide]", "values": [
      {"measurement": "peak uptake in mGluR1-rich cerebellum", "setting": "mGluR1 [2]", "value": "< 1.3", "unit": "SUV"}
    ]},
    {"compound": "COc1ccc(C(=O)N(C)c2nc(-c3cc(NC(C)C)ncn3)cs2)cc1", "note": "[[^11C]ITMM, [^11C]N-[4-[6-(isopropylamino)pyrimidin-4-yl]-1,3-thiazol-2-yl]-4-methoxy-N-methylbenzamide]", "values": [
      {"measurement": "peak uptake in mGluR1-rich cerebellum", "setting": "mGluR1 [2]", "value": "< 1.3", "unit": "SUV"}
    ]}
  ]
}
